The values below come from patent publication US20110052722A1, “Toleration Iron Supplement Compositions” (priority 2005, published 2011).

The conditions of series [1]: total administration should not exceed; cited from earlier work.
Series [2] deals with Sprague Dawley Crl:CD(SD) rats. Description: Repeated daily oral gavage study in rats: hematology, serum iron, gross necropsy. The following applies: once per day oral gavage. The class given is in vivo. As for the experimental part: The test material solution or vehicle control was administered once per day by oral gavage administration, and individual dose volumes were calculated based on the most recent body weight data for each animal.
General health/mortality and moribundity checks were performed twice daily, and detailed clinical observations were performed on days 1, 8, and 15 prior to dosing. Hematology parameters were evaluated for all animals on days 1, 7, and 14. Blood collection for serum iron concentration evaluation was performed on these days as well, and blood samples were obtained via the orbital plexus while the animals were under light isoflurane anesthesia. All animals were subjected to complete gross necropsy examination at scheduled euthanasia.
Blood samples for hematology testing were collected in volumes of about 200 μL in tubes containing anticoagulant K2EDTA, and were evaluated for red blood cell count (RBC), hemoglobin concentration (Hb), hematocrit (Hct), mean corpuscular volume (MCV), mean corpuscular hemoglobin concentration (MCHC), mean corpuscular hemoglobin (MCH), reticulocyte count (Retic), red blood cell morphology, white blood cell count (WBC), neutrophil count (Neut), lymphocyte count (Lymph), monocyte count (Mono), eosinophil count (Eos), and basophil count (Baso). Serum iron was measured by taking about 1 mL blood samples in a serum separator tube.

For series [3] the following is noted: cited from earlier work.
Setting [4] is: versus ferrous sulfate and/or ferrous fumarate, Newton et al. 1980, Piccinni et al. 1982.

In the case of `O=C([O-])/C=C/C(=O)[O-].[Fe+2]` [ferrous fumarate], in series [1], the toxicity limits is 200 to 250 mg/kg. Besides, the “immune response (segmented neutrophils, platelets, lymphocytes)” value in series [2] (Group 2 500 mg Fe/kg, Group 3 250 + 250 mg Fe/kg, hematology days 1, 7, 14) is “about the same”. Also, the “gross internal findings at necropsy” value in series [2] (Group 2 500 mg Fe/kg, Group 3 250 + 250 mg Fe/kg, scheduled euthanasia) was “body fat depletion, thyroid nodules, reddened mandibular lymph nodes, reddened stomach mucosa, small thymus, foci on the thymus, and dark fecal matter”. Besides, the serum iron levels entry in series [2] (ferrous fumarate 500 mg Fe/kg (Group 2), ferrous fumarate 250 + PIC 250 mg Fe/kg (Group 3), blood on days 1, 7, 14) is “significant increases”.

For the compound polysaccharide iron complex [PIC], in series [3] (setting [4]), the “efficacy at increasing hemoglobin and hematocrit values” is “equivalent efficacy”; the tolerability entry is given as “better tolerated”. In series [3] (versus ferrous sulfate, Johnson et al., Niferex-150 in ESRD patients receiving EPOGEN), the gastrointestinal side effects result is given as “fewer gastrointestinal side effects”.
